In US20070270462A1, “8-hydroxyquinoline compounds for treating a polyglutamine (polyQ)-expansion disease” (priority 2005, published 2007):
Marks after values point to notes of the source that are not given here.

Columns and labels:
Htt exon1-Q103-egfp mRNA = test: Northern analysis of Htt exon1-Q103-egfp mRNA; assay type: cell-based; details: Northern analysis after 48 hrs of transfection
Method: Trizol reagent (Invitrogen, Carlsbad, Calif.) was used to isolate total RNA. Ten μg of total RNA was electrophoresed through 1.25% w/v agarose gel and transferred onto Hybond N+membrane. The membrane was baked in an 80° C. oven for 15 min and UV-crosslinked. Exon 1 of htt containing 103 CAA/CAG-repeats was used as a probe for northern blot detection according to AlkPhos Direct Labeling and Detection System (Amersham Biosciences, Piscataway, N.J.). One hundred ng of the probe was hybridized to the membrane in a 60° C. rotating hybridization oven overnight. The membrane was scanned using the Typhoon 9410 digital scanner (Amersham Biosciences, Piscataway, N.J.) to yield the signal image. The experiment was performed three times and band intensities were averaged.
In examining potential mechanisms for the effects of CQ on Htt accumulation, we considered the possibilities that CQ might act to inhibit Htt aggregation or directly influence Htt synthesis or degradation. […] Therefore, we focused on the aspects of Htt synthesis and turnover. To determine whether CQ might down-regulate polyQ-Htt expression at the transcriptional level, we examined the amount of Htt^exon1-Q103-egfp mRNA present after 48 hrs of transfection by Northern analysis. […]

Alzheimer's disease = details: phase II clinical trial; cited from earlier work
R6/2 mice = test: Fasting blood insulin in R6/2 mice (ELISA); assay type: in vivo, mouse; details: 11-week old R6/2 mice
Method: A colony of transgenic mice strain R6/2 that is heterozygous for htt exon1 (containing 145 CAG repeats) was maintained, with founders originating and available from The Jackson Laboratory (Bar Harbor, Me., USA). Male transgenic R6/2 mice were bred with background strain (B6CBAFI/J) females. Genotyping was done according to Hockly et al, Brain Res Bull 61, 469-479, 2003. CQ in water was orally administered to mice at 30 mg/kg/day starting at 3 weeks of age and continued until the mice were deceased or sacrificed for tissues. Littermate R6/2 mice were gavaged with water vehicle alone. At the end of CQ treatment mice were anesthetized and transcardially perfused with PBS followed by 4% v/v paraformaldehyde. Blood glucose levels were determined after at least 8 hrs of fasting in 11-week old mice (n=6 for wild-type, n=4 for vehicle-treated R6/2, n=6 for CQ-treated R6/2 littermates) using a 2300 STAT Plus glucose analyzer (YSI, Yellowsonte, Ohio, USA). Fasting blood insulin levels in animals fasted for 8 hrs were measured using an Ultra Sensitive Rat Insulin ELISA Kit (Crystal Chem, Inc., Downers Grove, Ill., USA) according to manufacturer's instructions.
Consistent with the blood glucose level was a reciprocal change in blood insulin levels.
Data are mean+s.e.m. n≧4 for each treatment group. *P<0.0004 for glucose, **P=0.0065 for insulin levels comparing vehicle and CQ-treated groups.

aggregated huntingtin = test: Western blotting of aggregated huntingtin in whole-brain extracts of R6/2 mice; assay type: in vivo, mouse; details: 8 weeks daily oral CQ 30 mg/kg/day
Method: Whole mouse brains were homogenized in 50 mM Tris-HCl (pH 7.4), 150 mM NaCl, 1% v/v Triton X-100 and complete protease inhibitor cocktail. Brain homogenate was pre-cleared by centrifuging at 7,500 g for 90 s at 4° C. The supernatant was passed through a 28-gauge needle and boiled in SDS sample buffer for 10 min. Fifty μg of total protein was loaded onto 10% w/v SDS gel containing a 4% w/v stacking gel. Monoclonal antibodies anti-polyglutamine (1:2,000), anti-GAPDH (1:10,000), anti-GFP (1:4,000), and anti-Htt (EM48) in 1:1000 dilution were used for immunoblotting. All western blot experiments were performed at least three times and band intensities were averaged.

Htt exon1-Q103-egfp = test: Fluorescence microscopy of transiently transfected PC12 cells expressing Htt exon1-Q103-egfp; assay type: cell-based; details: CQ 4 μM, 48 hours post-transfection
Text: (§1) PolyQ-htt-GFP fusion constructs, in which the polyglutamine region is encoded by CAA and CAG-containing tandem repeats ([…]) [SEQ ID NO: 1], human polyglutaminen, were obtained from the Hereditary Disease Foundation, Santa Monica, Calif., USA. PC12 and HEK293 cells were maintained in MEM supplemented with 10% v/v FBS, switched to Opti-MEM without serum for 6 hrs during transfection using Lipofectamine 2000 (Invitrogen, Carlsbad, Calif., USA), and returned to serum-containing medium thereafter (up to 48 hours). […] Control cultures received equivalent amounts of DMSO-containing vehicle (<0.1% w/v DMSO, final concentration).
Concordant with this reduction in mutant protein expression, cell survival was improved by CQ in a dose dependent fashion with a half maximal effect at 1-2 μM (FIG. 2b). Cell death began to increase at 8 μM, likely due to dose-dependent toxic effects of CQ.

egfp-alone = test: Western blotting of cell extracts, egfp-alone expression; assay type: cell-based
Text: as §1
HEK293 or PC12 cells were lysed in PBS buffer containing 1% v/v Triton X-100 and protease inhibitor cocktail (Roche, Indianapolis, Ind.), and passed through a 28 gauge needle to ensure the release of Htt inclusions from the nuclei. Whole mouse brains were homogenized in 50 mM Tris-HCl (pH 7.4), 150 mM NaCl, 1% v/v Triton X-100 and complete protease inhibitor cocktail. Brain homogenate was pre-cleared by centrifuging at 7,500 g for 90 s at 4° C. The supernatant was passed through a 28-gauge needle and boiled in SDS sample buffer for 10 min. Fifty μg of total protein was loaded onto 10% w/v SDS gel containing a 4% w/v stacking gel. […]

Structure (SMILES): Oc1c(I)cc(Cl)c2cccnc12 [CQ, 5-chloro-7-iodo-8-hydroxy-quinoline]
- effect on Htt exon1-Q103-egfp mRNA levels (Htt exon1-Q103-egfp mRNA): no significant effect
- CQ toxicity (Alzheimer's disease): no significant CQ toxicity
- effects on Alzheimer's disease (Alzheimer's disease): early positive effects
- fasting blood insulin level (R6/2 mice; CQ treated group): 415 ± 54.6 pg/mL
- Insulin level (R6/2 mice; fasting, CQ-treated, mean ± s.e.m. (Table 3)): 415 ± 54.60** pg/ml
- reduction in the quantity of aggregated huntingtin (aggregated huntingtin): 3.9 fold
- fluorescent product of Htt exon1-Q103-egfp (Htt exon1-Q103-egfp): less fluorescent product
- inhibition of egfp-alone expression (egfp-alone): not observed
